The values that follow come from patent US20140288090A1, “N-ARYLYLMETHYLINDAZOLE MODULATORS OF PPARG” (priority 2011, published 2014).

The test system of assay [1] is PPARG (murine PPARg2 or full-length human PPARg co-transfected into COS-1 cells). Kind of assay: Cell-based transactivation assay (3x PPRE-luciferase reporter, COS-1 cells). Conditions: PPRE::Luc reporter. As to the method: PPRE is a DNA that contains a binding site for PPARG; thus PPRE is a PPAR response element, used herein as a promoter reporter. The binding site is a DR1 response element with the sequence [NT] repeated 3 times in tandem and then fused to a construct for luciferase. Thus, PPRE is the basis of the cell based transactivation assay described below. The plasmid DNA is co-transfected along with a plasmid for PPARG into COS-1 cells. After an overnight incubation, cells are treated with DMSO or compounds. […] Transfected cells were plated in white Perkin Elmer 384-well plates and incubated 4 hours. […] After 18 hour incubation, treated cells were developed with Brite Lite Plus (Perkin Elmer) and read in 384-well Luminescence Perkin Elmer EnVision Multilabel plate reader. Graphs were plotted in triplicate in GraphPad Prism Software as fold change of treated cells over DMSO control cells.

For the next assay, the target named is T1, GST-PPARG-LBD (Homo sapiens, UniProt P37231).
T1 construct: A mixture of 5 nM GST-PPARG-LBD; purchased Invitrogen
T1 sequence (P37231 238-503 limits assumed): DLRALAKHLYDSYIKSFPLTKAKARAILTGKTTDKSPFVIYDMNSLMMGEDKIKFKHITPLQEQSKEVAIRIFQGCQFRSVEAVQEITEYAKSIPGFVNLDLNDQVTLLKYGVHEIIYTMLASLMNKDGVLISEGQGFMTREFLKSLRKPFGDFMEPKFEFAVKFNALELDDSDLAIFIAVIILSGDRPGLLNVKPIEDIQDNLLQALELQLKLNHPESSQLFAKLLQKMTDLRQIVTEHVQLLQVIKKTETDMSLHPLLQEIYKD
Kind of assay: Lanthascreen PPARG competitive binding assay (Invitrogen). As to the method:
The assay was performed according to manufacturer protocol. A mixture of 5 nM GST-PPARG-LBD, 5 nM Tb-GST-antibody, 5 nM Fluormone Pan-PPAR. Green, and serial dilutions of the experimental compound, beginning at 10 μM downwards, was added to wells of black 384-well low-volume plates (Greiner) to a total volume of 18 μL. All dilutions were made in TR-FRET assay buffer C. DMSO at 2% final concentration was used as a no-ligand control. Experiment was performed in triplicate, and incubated for 2 hours in the dark prior to assay read in Perkin Elmer ViewLux ultra HTS microplate reader. FRET signal was measured by excitation at […] and emission at 520 nm for fluorcscein and 490 nm for terbium. Fold change over DMSO was calculated using GraphPad Prism Software (La Jolla, Calif.) by calculating 520 nm/490 nm ratio. Graphs were plotted as fold change of FRET signal for compound treatment over DMSO-only control.
A general note: Time-resolved FRET reads energy transfer from a long-lived donor to a nearby acceptor.

The mark [2] stands for this setting: Table 3, Lantha 1, read-out: IC50 (nM) Lantha 1.
Setting [3] is: Table 3, Lantha 2, read-out: IC50 (nM) Lantha 2.

What is called IC50 is the concentration that inhibits the measured activity by half.

Like-named read-outs stand apart in the source and are kept apart here.

For `COc1ccc(C(=O)n2c(C)c(Cc3cccc(O[C@@H](C)C(=O)O)c3)c3cc(OC(F)(F)F)ccc32)cc1` [MRL24], the “transactivation of the reporter relative to rosiglitazone response” value in assay [1] is “about 25 % of rosiglitazone response”.

On to `Cc1nn(Cc2ccc(-c3ccccc3C(=O)O)cc2)c2ccc(C(=O)NC3CCCC3)cc12` [compound 21], for which the results for the IC50 at GST-PPARG-LBD (setting [2]) and on GST-PPARG-LBD (setting [3]) were 11.5 nM and 870 nM, respectively. In the case of `COCCNC(=O)c1ccc2c(c1)c(C)nn2Cc1ccc(-c2ccccc2C(=O)O)cc1` [compound 22], the IC50 on GST-PPARG-LBD (setting [2]) was greater than 100 nM; at GST-PPARG-LBD (setting [3]), 824 nM. Regarding `Cc1nn(Cc2ccc(-c3ccccc3C(=O)O)cc2)c2ccc(C(=O)NC3CCCCC3)cc12` [compound 23], the IC50 on GST-PPARG-LBD (setting [2]) came out at 560 nM; on GST-PPARG-LBD (setting [3]), 562 nM.

With `Cc1nn(Cc2ccc(-c3ccccc3C(=O)O)cc2)c2ccc(C(=O)NC3CCCCCC3)cc12` [compound 24], the concentration for half-maximal inhibition (IC50) at GST-PPARG-LBD (setting [2]) was 204 nM; at GST-PPARG-LBD (setting [3]) it was 176 nM. For `Cc1nn(Cc2ccc(-c3ccccc3C(=O)O)cc2)c2ccc(C(=O)NC3CCC(C)CC3)cc12` (centres unmarked) [compound 25] the same measures were 255 nM and 82.8 nM. For the compound `Cc1nn(Cc2ccc(-c3ccccc3C(=O)O)cc2)c2ccc(C(=O)N[C@@H](C)c3cccc(C(C)C)c3)cc12` [compound 26], the 50% inhibitory concentration (IC50) on GST-PPARG-LBD (setting [2]) amounted to 23.4 nM; at GST-PPARG-LBD (setting [3]) it was 94.8 nM.

In the case of `Cc1ccc([C@H](C)NC(=O)c2ccc3c(c2)c(C)nn3Cc2ccc(-c3ccccc3C(=O)O)cc2)cc1` [compound 27], on GST-PPARG-LBD (setting [3]), the IC50 came to 31.8 nM.

Take `CCC(NC(=O)c1ccc2c(c1)c(C)nn2Cc1ccc(-c2ccccc2C(=O)O)cc1)c1ccccc1` (centres unmarked) [compound 28]: the half-inhibitory concentration (IC50) at GST-PPARG-LBD (setting [3]) was found to be 0.579 nM. Turning to `Cc1nn(Cc2ccc(-c3ccccc3C(=O)O)cc2)c2ccc(C(=O)N[C@@H](C)c3cccc(C4CC4)c3)cc12` [compound 29], the IC50 on GST-PPARG-LBD (setting [3]) stood at 18.8 nM. On to `Cc1nn(Cc2ccc(-c3ccccc3C(=O)O)cc2)c2ccc(C(=O)N[C@H](C)C3CCCCC3)cc12` [compound 30], for which the IC50 at GST-PPARG-LBD (setting [3]) was 21.6 nM.

As for `Cc1nn(Cc2ccc(-c3ccccc3C(=O)O)cc2)c2ccc(C(=O)N[C@@H](C)C3CCCCC3)cc12` [compound 31], the IC50 at GST-PPARG-LBD (setting [3]) was determined as 41.7 nM. On the same count and under the same terms, for `COC[C@H](C)NC(=O)c1ccc2c(c1)c(C)nn2Cc1ccc(-c2ccccc2C(=O)O)cc1` [compound 32] the value was 367 nM.

Regarding `Cc1nn(Cc2ccc(-c3ccccc3C(=O)O)cc2)c2ccc(C(=O)N[C@H]3COc4ccccc4C3)cc12` [compound 33], the half-maximal inhibitory concentration (IC50) on GST-PPARG-LBD (setting [3]) was 235 nM.

For the compound `Cc1nn(Cc2ccc(-c3ccccc3C(=O)O)cc2)c2ccc(C(=O)N[C@@H]3COc4ccccc4C3)cc12` [compound 34], the half-inhibitory concentration (IC50) at GST-PPARG-LBD (setting [3]) came to 147 nM. In the case of `CCCCNC(=O)c1ccc2c(c1)c(C)nn2Cc1ccc(-c2ccccc2C(=O)O)cc1` [compound 35], the IC50 at GST-PPARG-LBD (setting [2]) came out at 76.3 nM; on GST-PPARG-LBD (setting [3]) it was 84.1 nM. For `CCOCCNC(=O)c1ccc2c(c1)c(C)nn2Cc1ccc(-c2ccccc2C(=O)O)cc1` [compound 36] the same measures were 4420 nM and 344 nM.

Turning to `COCCCNC(=O)c1ccc2c(c1)c(C)nn2Cc1ccc(-c2ccccc2C(=O)O)cc1` [compound 37], the IC50 on GST-PPARG-LBD (setting [2]) amounted to 1820 nM; on GST-PPARG-LBD (setting [3]) it was 1740 nM. For `Cc1nn(Cc2ccc(-c3ccccc3C(=O)O)cc2)c2ccc(C(=O)NCC3CCC(C)CC3)cc12` (centres unmarked) [compound 38] the same measures were 118 nM and 82.8 nM.

As for `Cc1nn(Cc2ccc(-c3ccccc3C(N)=O)cc2)c2ccc(C(=O)N[C@@H](C)c3ccc(Br)cc3)cc12` [compound 39], the IC50 at GST-PPARG-LBD (setting [3]) turned out to be 16.1 nM. Regarding `Cc1nn(Cc2ccc(-c3ccccc3C#N)cc2)c2ccc(C(=O)N[C@@H](C)c3ccc(Br)cc3)cc12` [compound 40], the half-inhibitory concentration (IC50) amounted to 40.8 nM at GST-PPARG-LBD (setting [2]) and 37.7 nM at GST-PPARG-LBD (setting [3]).

With `Cc1nn(Cc2ccc(-c3ccccc3-c3nnn[nH]3)cc2)c2ccc(C(=O)N[C@@H](C)c3ccc(Br)cc3)cc12` [compound 41], the IC50 on GST-PPARG-LBD (setting [3]) came to 2.6 nM. On to `Cc1nn(Cc2ccc(-c3ccccc3C(=O)O)cc2)c2ccc(C(=O)N[C@@H](C)c3ccc(Br)cc3)cc12` [compound 42], for which the results for the concentration for half-maximal inhibition (IC50) on GST-PPARG-LBD (setting [2]) and on GST-PPARG-LBD (setting [3]) were 9.83 nM and 2.8 nM, respectively.

In the case of `CC[C@H](NC(=O)c1ccc2c(c1)c(C)nn2Cc1ccc(-c2ccccc2C(=O)O)cc1)c1ccccc1` [compound 43], the half-inhibitory concentration (IC50) at GST-PPARG-LBD (setting [3]) was determined as 13 nM. With `COCCNC(=O)c1ccc2c(c1)c(C(C)C)nn2Cc1ccc(-c2ccccc2C(=O)O)cc1` [compound 46], the IC50 at GST-PPARG-LBD (setting [2]) came to 359 nM; at GST-PPARG-LBD (setting [3]) it was 432 nM. Consider `CCC(NC(=O)c1ccc2c(c1)c(C(C)C)nn2Cc1ccc(-c2ccccc2C(=O)O)cc1)c1ccccc1` (centres unmarked) [compound 47], for which the IC50 at GST-PPARG-LBD (setting [2]) turned out to be 1.85 nM; on GST-PPARG-LBD (setting [3]), 0.681 nM.

On to `CC(C)c1nn(Cc2ccc(-c3ccccc3C(=O)O)cc2)c2ccc(C(=O)NC3CCCC3)cc12` [compound 48], for which the results for the IC50 on GST-PPARG-LBD (setting [2]) and at GST-PPARG-LBD (setting [3]) were 133 nM and 259 nM, respectively. Consider `CC[C@H](NC(=O)c1ccc2c(c1)c(C(C)C)nn2Cc1ccc(-c2ccccc2C(=O)O)cc1)c1ccc(Br)cc1` [compound 49], for which the IC50 on GST-PPARG-LBD (setting [3]) is 0.119 nM. On to `CC(C)c1nn(Cc2ccc(-c3ccccc3C(=O)O)cc2)c2ccc(C(=O)N[C@@H](C)c3ccc(Br)cc3)cc12` [compound 50], for which the IC50 at GST-PPARG-LBD (setting [2]) was determined as 19.9 nM; at GST-PPARG-LBD (setting [3]) it was 15.2 nM. Taken in the same sequence, the figures for `C=C(C)c1nn(Cc2ccc(-c3ccccc3C(=O)O)cc2)c2ccc(C(=O)NCCOC)cc12` [compound 51] were 120 nM and 166 nM.

For the compound `Cc1nn(Cc2ccccc2)c2ccc(C(=O)N[C@@H](C)c3ccc(Br)cc3)cc12` [compound 52], the IC50 at GST-PPARG-LBD (setting [2]) is 713 nM; at GST-PPARG-LBD (setting [3]), 932 nM.

As for `Cc1nn(Cc2ccc(Cl)cc2)c2ccc(C(=O)N[C@@H](C)c3ccc(Br)cc3)cc12` [compound 53], the half-inhibitory concentration (IC50) at GST-PPARG-LBD (setting [3]) amounted to 1050 nM. On the same count and under the same terms, for `Cc1nn(Cc2cccc(O[C@H](C)C(=O)O)c2)c2ccc(C(=O)N[C@@H](C)c3ccc(Br)cc3)cc12` [compound 54] the value was 21.6 nM; for `Cc1nn(Cc2ccccc2C#N)c2ccc(C(=O)N[C@@H](C)c3ccc(Br)cc3)cc12` [compound 55], 32.2 nM; for `Cc1nn(Cc2ccc(C3(C(=O)O)CC3)cc2)c2ccc(C(=O)N[C@@H](C)c3ccc(Br)cc3)cc12` [compound 56], 144 nM. Consider `Cc1nn(Cc2ccccn2)c2ccc(C(=O)N[C@@H](C)c3ccc(Br)cc3)cc12` [compound 57], for which the IC50 on GST-PPARG-LBD (setting [3]) is 877 nM. On the same count and under the same terms, in the case of `COCCNC(=O)c1ccc2c(c1)c(C)nn2Cc1cccc(C#N)c1` [compound 58] it was 4770 nM. Consider `CN(CCOc1ccc(CC2SC(=O)NC2=O)cc1)c1ccccn1` (centres unmarked) [rosiglitazone], for which the “activation of the PPRE reporter” value in assay [1] is “about 5 fold”.
